PubChem BioAssay AID743369
Activity calls are given as the source filed them. How the calls were made is not given here.

Biological target: Acetylcholine-binding protein (Lymnaea stagnalis) (UniProt P58154)
Experiment: acetylcholine-binding protein ligand affinity – biochemical, Lymnaea stagnalis, His-tagged, [125I]alpha-bungarotoxin (AID 743369)
Details: Purified AChBP, [125I]-alpha-bungarotoxin displacement, filtration

Sequence of Acetylcholine-binding protein (Lymnaea stagnalis) (P58154 whole entry, looked up): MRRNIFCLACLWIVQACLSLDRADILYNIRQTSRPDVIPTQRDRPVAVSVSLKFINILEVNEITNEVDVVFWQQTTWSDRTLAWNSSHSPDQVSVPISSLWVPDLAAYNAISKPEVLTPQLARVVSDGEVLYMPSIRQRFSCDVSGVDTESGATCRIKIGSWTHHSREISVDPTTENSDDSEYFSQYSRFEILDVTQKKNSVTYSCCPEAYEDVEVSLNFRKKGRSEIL

| SMILES | Ki |
| --- | --- |
| COc1cc(CCN)c2c(c1OC)SSSSS2 | 790 nM |
| COc1cc2c3c(ccnc3c1OC)NC=C2 | 3000 nM |
| NC1=N/C(=C2/CCNC(=O)c3[nH]ccc32)C(=O)N1 | inactive |
| CC/C=C/[C@@H]1CC[C@]2(C[C@H]3CC[C@H]4[C@@H](C(=O)OC(CC)CCCCCCCCCCCCC[C@@H]5O[C@](O)(CCN)[C@H](O)N(CCCN)C5=O)[C@@]5(CCC[C@H](C)O5)NC(=[N+]34)N2)O1 (stereo partly specified) | 2500 nM |
| C[C@@H](N)[C@H](O)CCCCCCCC(=O)CCCCCCCCCCCCCC[C@@H](O[C@@H]1O[C@H](CO)[C@H](O)[C@H](O)[C@H]1O)[C@@H](C)N | 28000 nM |
| COn1c(Br)c2c3c(cccc31)[C@H]1C[C@@H](C)CN(C)[C@@H]1C2 | 830 nM |
